One compound from patent publication US10328075B2, “Method of treatment and compounds for use therein” (Baker Heart and Diabetes Institute, priority 2015, dated 2019) can be followed below.

Assay type in all cases: cell-based
The target in assay [1] is T1, hFPR1 (Homo sapiens, UniProt P21462).
T1 construct: expressed in transfected cells
T1 sequence (P21462 1-350): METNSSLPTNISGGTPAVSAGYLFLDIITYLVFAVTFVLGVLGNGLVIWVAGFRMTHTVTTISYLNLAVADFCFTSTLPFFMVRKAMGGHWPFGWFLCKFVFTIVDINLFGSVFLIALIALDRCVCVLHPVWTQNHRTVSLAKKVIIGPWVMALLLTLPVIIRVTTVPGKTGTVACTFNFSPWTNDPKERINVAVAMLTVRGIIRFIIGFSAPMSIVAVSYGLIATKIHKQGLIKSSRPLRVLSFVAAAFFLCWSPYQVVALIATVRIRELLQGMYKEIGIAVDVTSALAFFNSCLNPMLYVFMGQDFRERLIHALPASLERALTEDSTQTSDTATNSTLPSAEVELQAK
The assay can be described thus: Inhibition of forskolin-stimulated cAMP accumulation in hFPR1-FlpIn-CHO cells. The note with it: for Concentration-response profile on forskolin-stimulated cAMP accumulation at hFPR1: in words. An excerpt: (§1) cDNDA construct and generation of stable cell lines: cDNA in pcDNA3.1^+ encoding the human formyl peptide receptors (FPR) subtypes, hFPR1, hFPR2 and hFPR3 was obtained from Invitrogen. The sequences for 3 hFPR receptors were amplified by PCR and cloned into the Gateway entry vector, pDONR202™, using the BP clonase enzyme mix, according to the manufactures' instructions (Invitrogen Inc, Carlsbad, Calif., USA). All hFPR receptors constructs in pDONR201™ were subsequently transfected into the pEF5/FRT/V5/dest vector using the LR clonase enzyme mix (Invitrogen). Receptor constructs (pEF5/FRT/V5/dest) were used to transfect FIp-In CHO cells as described previously (Valant C et al., PNAS, 2014). Cells were selected using 500 μg/mL hydromycin to generate cell lines stably expressing each receptor construct. Cells were maintained and cultured in high glucose DMEM supplemented with 10% FBS, 16 mM HEPES and 500 μg/mL hydromycin at 37° C. under a humidified atmosphere containing 5% CO2.
(§2) In the various assays described below, cells were plated into 96-well transparent cell culture plates at 4×10^4 cells per well, cultured overnight in serum-free media at 37° C. in 5% CO2.
cAMP Accumulation: CHO-hFPR1, -hFPR2 and -hFPR3 stable transfected cells were plated into 96-well plates and cultured overnight at 37° C. in 5% CO2. Cells were washed with PBS, and cultured overnight. […] Cells were lysed in detection buffer (dH2O, 0.3% Tween 20, 5 mM HEPES, 0.1% BSA). Lysates were transferred to a 384-well plate and mixtures of detection buffer/donor bead-conjugated anti-cAMP antibody and detection buffer: biotinylated cAMP: acceptor bead-conjugated streptavidin were added to the lysates according to the PerkinElmer cAMP Alphascreen protocol. Under low-light conditions, a 1:50 (v:v) dilution of AlphaScreen acceptor beads: stimulation buffer was prepared, 1:150 (v:v) dilution of donor beads and 50 nM biotinylated cAMP in detection buffer was prepared in a 384-well opaque optiplates. Plates were incubated in the dark at room temperature overnight before the fluorescence signal was measured by use of a Fusion-α plate reader (PerkinElmer Life and Analytical Sciences). Data were normalized to the response elicited by 10 μM forskolin at the same time point.
(§3) Data analysis: All data were analysed using GraphPad Prism 6.0 (GraphPad Software, San Deigo, Calif., USA). Where appropriate, concentration-response curves were fitted to derive the maximal agonist effect (Emax), and the ligand potency estimate (pEC50), where Emax is the maximal possible response of the system (not the agonist), basal is the basal level of response in the absence of agonist, and pEC50 is the negative logarithm of the agonist concentration that gives a response halfway between Emax and basal.
(§4) In the present study, FIp-IN CHO cells and Gateway plasmid were obtained from Invitrogen Inc (Carlsbad, Calif., USA). The sequences for all 3 known human FPRs (hFPR1, hFPR2 and hFPR3) were amplified by PCR and cloned into the Gateway entry vector, pDONR202TM, using the BP clonase enzyme mix, according to the manufacturers' instructions. The hFPR pDONR201TM constructs were subsequently transfected into the pEF5/FRT/V5/dest vector using the LR clonase enzyme mix (Invitrogen). Receptor constructs (pEF5/FRT/V5/dest) were used to transfect FIp-IN CHO cells, as described previously (Valant et al. 2014). Cells were selected using 500 μg/mL hydromycin to generate cell lines stably expressing each human receptor construct. Cells were maintained and cultured in high glucose Dulbecco's modified eagle medium (DMEM) supplemented with 10% fetal bovine serum (FBS, from JRH Biosciences, Lenexa, Kans., USA) and 500 μg/mL hydromycin B (Invitrogen Inc) at 37° C. under a humidified atmosphere containing 5% CO2. Cell were plated into 96-well transparent cell culture plates at 4×10^4 cells per well, cultured overnight in serum-free media at 37° C. in 5% CO2.

Assay [2] has as its target T1, hFPR1. The assay can be described thus: Akt1/2/3 (Ser473) phosphorylation in hFPR1-FlpIn-CHO cells.
Text: as §1, §2
(§5) Measurement of Akt1/2/3 phosphorylation and Akt 1: The same lysate was used for measurement of Akt1/2/3 phosphorylation (Ser473) and Akt1 (Thr308). Cells were lysed in SureFire lysis buffer and transferred to 384-well opaque proxiplates. Under low-light conditions, a 1:10:40 (v:v:v) dilution of AlphaScreen acceptor beads:Surefire activation buffer:Surefire reaction buffer was prepared and the plate was incubated in the dark at RT for 2 h. Then, a 1:20 (v:v) dilution of AlphaScreen donor beads/dilution was prepared and incubated in the dark at RT for another 2 h, before the fluorescence signal was measured by used of a Fusion-α plate reader (PerkinElmer Life and Analytical Sciences) with standard AlphaScreen settings. Receptor mediated phosphorylation of Akt1/2/3 (Ser473) and Akt1 (Thr308) were determined using the AlphaScreen™ […] SureFire™ kit, as per as per manufacturer's instructions. Data were normalized to the maximal response elicited by 10% (v:v) FBS at the same time point.
as §3, §4

The target of assay [3] is T1, hFPR1. The assay can be described thus: Akt (Thr308) phosphorylation in hFPR1-FlpIn-CHO cells.
Text: as §1, §2, §5, §3, §4

The mark [4] stands for this setting: Table 8, normalized transduction coefficient, reference agonist Cmpd43.
The mark [5] stands for this setting: Table 8, transduction coefficient.

Regarding `CC(C)C1C(NC(=O)Nc2ccc(Cl)cc2)C(=O)N(c2ccccc2)N1C` (centres unmarked) [BIDI-002], the Emax at hFPR1 [1] (Table 4, percentage inhibition of forskolin-stimulated cAMP accumulation, read-out: Emax (%), inhibition to cAMP accumulation, hFPR1-Flpln-CHO) is 27 ± 20%; at hFPR1 [1] (Table 8, percent inhibition of forskolin-induced cAMP accumulation, read-out: Emax, inhibition of cAMP accumulation, hFPR1-Flpln-CHO), 27 ± 20%; on hFPR1 [2] (Table 3, percentage of Akt1/2/3 phosphorylation elicited by 10% FBS, read-out: Emax (%), Akt 1/2/3 (Ser473), hFPR1-Flpln-CHO), 13 ± 3%; at hFPR1 [2] (Table 8, percent of response elicited by 10% FBS, read-out: Emax, Akt 1/2/3 (Ser473) phosphorylation, hFPR1-Flpln-CHO), 13 ± 3%; on hFPR1 [3] (Table 3, percentage of Akt1/2/3 phosphorylation elicited by 10% FBS, read-out: Emax (%), Akt 1 (Thr308) phosphorylation, hFPR1-Flpln-CHO) it was 15 ± 4%; on hFPR1 [3] (Table 8, percent of response elicited by 10% FBS, read-out: Emax, Akt 1/2/3 (Thr308) phosphorylation, hFPR1-Flpln-CHO) it was 15 ± 4%. Moreover, the EC50 is 74.1 nM at hFPR1 [1] (Table 4, read-out: pEC50, inhibition to cAMP accumulation, hFPR1-Flpln-CHO (converted)); 79.4 nM on hFPR1 [1] (Table 8, read-out: pEC50, inhibition of cAMP accumulation, hFPR1-Flpln-CHO (converted)); 87.1 nM at hFPR1 [2] (Table 3, read-out: pEC50, Akt 1/2/3 (Ser473), hFPR1-Flpln-CHO (converted)); 79.4 nM at hFPR1 [2] (Table 8, read-out: pEC50, Akt 1/2/3 (Ser473) phosphorylation, hFPR1-Flpln-CHO (converted)); 129 nM at hFPR1 [3] (Table 3, read-out: pEC50, Akt 1 (Thr308) phosphorylation, hFPR1-Flpln-CHO (converted)); 126 nM at hFPR1 [3] (Table 8, read-out: pEC50, Akt 1/2/3 (Thr308) phosphorylation, hFPR1-Flpln-CHO (converted)). Further, on hFPR1 [1] (setting [4]), the “ΔLog(τ/KA), inhibition of cAMP accumulation, hFPR1-Flpln-CHO” value stood at 0.0. Further, the “Log(τ/KA), inhibition of cAMP accumulation, hFPR1-Flpln-CHO” value at hFPR1 [1] (setting [5]) worked out at 7.1 ± 0.3. For the same compound, the “Concentration-response profile on forskolin-stimulated cAMP accumulation at hFPR1” value at hFPR1 [1] is “bell-shaped curves”; on hFPR1 [1] (listed as Cmpd43), “bi-phasic curve”. The “ΔLog(τ/KA), Akt 1/2/3 (Ser473) phosphorylation, hFPR1-Flpln-CHO” value on hFPR1 [2] (setting [4]) was 0.0. The “Log(τ/KA), Akt 1/2/3 (Ser473) phosphorylation, hFPR1-Flpln-CHO” value on hFPR1 [2] (setting [5]) amounted to 6.9 ± 0.3. The “ΔLog(τ/KA), Akt 1/2/3 (Thr308) phosphorylation, hFPR1-Flpln-CHO” value on hFPR1 [3] (setting [4]) is reported as 0.0. The “Log(τ/KA), Akt 1/2/3 (Thr308) phosphorylation, hFPR1-Flpln-CHO” value on hFPR1 [3] (setting [5]) stood at 6.9 ± 0.3.
